Experimental data reported in ChEMBL document CHEMBL6092140, “Structure-activity relationship study of small-molecule inhibitor of Atg12-Atg3 protein-protein interaction” (Bioorg Med Chem Lett, 2024).
Active and inactive are the calls of the source. The calls are words filed in the database; no cut-off is given here.

Key:
[1] = Inhibition of wild type ATG12-ATG3 protein protein interaction (unknown origin) expressed in HEK293T cells preincubated for ATG12 for 1 hr followed by ATG3 addition by luminescence based microplate analysis; assay type: cell-based, Homo sapiens
[2] = target: Casein kinase II subunit alpha' (Homo sapiens) (UniProt P19784); test: Inhibition of […] (unknown origin) assessed as residual activity relative to control; set-up: concentration or dose not given beside the values
Chain of Casein kinase II subunit alpha' (Homo sapiens) (P19784 whole entry, looked up): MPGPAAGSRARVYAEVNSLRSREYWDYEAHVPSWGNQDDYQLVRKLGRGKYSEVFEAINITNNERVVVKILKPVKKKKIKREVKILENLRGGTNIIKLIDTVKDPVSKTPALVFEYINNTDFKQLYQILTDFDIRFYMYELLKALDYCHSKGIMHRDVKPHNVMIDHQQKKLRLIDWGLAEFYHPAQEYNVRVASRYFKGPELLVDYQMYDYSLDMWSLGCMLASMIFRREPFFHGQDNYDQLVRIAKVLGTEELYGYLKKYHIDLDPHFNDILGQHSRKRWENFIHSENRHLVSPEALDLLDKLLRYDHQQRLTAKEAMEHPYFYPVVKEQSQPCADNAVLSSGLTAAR

| SMILES | IC50 [1] [µM] | Activity [2] |
| --- | --- | --- |
| O=C(O)c1ccc2cnc(Nc3cccc(Cl)c3)nc2c1 | 62 | -4% |
| Cc1cn2c(Nc3cccc(OC(F)(F)F)c3)nc3cc(C(=O)O)ccc3c2n1 | 37 | 42% |
| Cc1cn2c(Nc3cccc(C(C)C)c3)nc3cc(C(=O)O)ccc3c2n1 | 41 | 31% |
| Cc1cn2c(Nc3ccnc(Cl)c3)nc3cc(C(=O)O)ccc3c2n1 | 71 | 73% |
| O=C(O)c1ccc2c(c1)N=C(Nc1cccc(Cl)c1)N1CCCN=C21 | > 99 | 87% |
| O=C(O)c1ccc2c(c1)nc(Nc1cccc(Cl)c1)c1ccccc12 | 45 | 36% |
| Cn1ncc2c(Nc3cccc(Cl)c3)nc3cc(C(=O)O)ccc3c21 | 42 | 35% |
| O=C(O)c1ccc2c(Cc3ccccc3)cc(Nc3cccc(Cl)c3)nc2c1 | > 99 | 101% |
| COc1nc(Nc2cccc(Cl)c2)nc2cc(C(=O)O)ccc12 | 91 | 50% |
| O=C(O)c1ccc2c(c1)nc(Oc1cccc(Cl)c1)c1ccncc12 | 51 | 4% |
| CC1=CN2C(Nc3cccc(Cl)c3)=Nc3cc(-c4nnn[nH]4)ccc3C2N1 (centres undefined) | 73 | 80% |
| CC1=CN2C(Nc3cccc(Cl)c3)=Nc3cc(-c4noc(=O)[nH]4)ccc3C2N1 (centres undefined) | 92 | 105% |
| Cn1cnc2c3ccc(C(=O)O)cc3nc(Nc3cccc(Cl)c3)c21 | 62 | 55% |
| Cc1cn2c(NC3CCCCC3)nc3cc(C(=O)O)ccc3c2n1 | > 99 | 72% |
| O=C(O)c1ccc2c(Cc3ccccc3)nc(Nc3cccc(Cl)c3)nc2c1 | > 99 | 96% |
| CC(C)c1cn2c(Nc3cccc(Cl)c3)nc3cc(C(=O)O)ccc3c2n1 | 30 | 105% |

| SMILES | IC50 [1] [µM] | Activity [2] |
| --- | --- | --- |
| Cc1cn2c(Nc3cccc(F)c3)nc3cc(C(=O)O)ccc3c2n1 | 90 | 35% |
| Clc1cccc(Nc2nc3cc(-c4nnn[nH]4)ccc3c3ncccc23)c1 | 64 | 53% |
| Cc1cn2c(N(C)c3cccc(Cl)c3)nc3cc(C(=O)O)ccc3c2n1 | > 99 | 75% |
| Cc1cn2c(Nc3cccc(C(F)(F)F)c3)nc3cc(C(=O)O)ccc3c2n1 | 30 | 48% |
| CC1=CN2C(Nc3cccc(Cl)c3)=Nc3cc(C(N)=O)ccc3C2N1 (centres undefined) | > 99 | 109% |
| O=c1[nH]nc(-c2ccc3c(c2)nc(Nc2cccc(Cl)c2)c2cccnc23)o1 | 72 | 52% |
| Cc1cn2c(NC34CC5CC(CC(C5)C3)C4)nc3cc(C(=O)O)ccc3c2n1 | 25 | 83% |
| O=C(O)c1ccc2c(c1)nc(Nc1cccc(Cl)c1)c1ccncc12 [SILMITASERTIB] | 27 | 2% |
| Cc1cn2c(Nc3ccc(Cl)cc3)nc3cc(C(=O)O)ccc3c2n1 | > 99 | 76% |
| CC(=O)Oc1ccc(COC(=O)c2ccc3c(c2)nc(Nc2cccc(Cl)c2)c2cccnc23)cc1 | 53 | inactive |
| Cc1cn2c(NC(C)(C)C)nc3cc(C(=O)O)ccc3c2n1 | > 99 | 104% |
| N/C(=N\O)c1ccc2c(c1)nc(Nc1cccc(Cl)c1)c1cccnc12 | > 99 | inactive |
| Cc1cnc2c3ccc(C(=O)O)cc3nc(Nc3cccc(Cl)c3)n12 | 24 | 29% |
| O=C(O)c1ccc2ccc(Nc3cccc(Cl)c3)nc2c1 | 50 | 20% |
| O=C(O)c1ccc2c(c1)N=C(Nc1cccc(Cl)c1)N1CCN=C21 | 60 | 128% |
| Cc1cn2c(Nc3cccc(Cl)c3)nc3cc(P(=O)(O)O)ccc3c2n1 | > 99 | 95% |

Further compounds by falling IC50 [1], results first:

| IC50 [1] [µM] | Activity [2] | SMILES |
| --- | --- | --- |
| 24 | 20% | CCc1cn2c(Nc3cccc(Cl)c3)nc3cc(C(=O)O)ccc3c2n1 |
| 24 | 102% | Cc1cn2c(Nc3cccc(C(C)(C)C)c3)nc3cc(C(=O)O)ccc3c2n1 |
| 19 | 1% | Cn1ncc2c3ccc(C(=O)O)cc3nc(Nc3cccc(Cl)c3)c21 |
| 16 | 1% | O=C(O)c1ccc2c(c1)nc(Nc1cccc(Cl)c1)c1ncsc12 |
| 14 | 81% | O=C(O)c1ccc2c(c1)nc(Nc1cccc(Cl)c1)n1cc(Cc3ccccc3)nc21 |
| 14 | 33% | Cc1scc2c1c(Nc1cccc(Cl)c1)nc1cc(C(=O)O)ccc12 |
| 14 | -1% | O=C(O)c1ccc2c(c1)nc(Nc1cccc(Cl)c1)c1ccsc12 |
| 14 | 31% | O=C(O)c1ccc2c(c1)nc(Nc1cccc(Cl)c1)n1ccnc21 |
| 11 | -1% | Cc1nsc2c1c(Nc1cccc(Cl)c1)nc1cc(C(=O)O)ccc12 |
| 10 | 11% | Cc1cn2c(Nc3cccc(I)c3)nc3cc(C(=O)O)ccc3c2n1 |
| 10 | 28% | O=C(O)c1ccc2c(c1)nc(Nc1cccc(Cl)c1)c1cnccc12 |
| 9 | 114% | O=C(O)c1ccc2c(c1)nc(Nc1cccc(Cl)c1)n1cc(-c3ccccc3)nc21 |
| 8 | 26% | Cc1cn2c(Nc3cccc(Cl)c3)nc3cc(C(=O)O)ccc3c2n1 |
| 8 | 38% | Cc1cn2c(Nc3cccc(C#N)c3)nc3cc(C(=O)O)ccc3c2n1 |
| 6 | 13% | O=C(O)c1ccc2c(c1)nc(Nc1cccc(Cl)c1)c1cccnc12 |
